Source: patent publication US20120094998A1, “Oligomer-Protein Tyrosine Kinase Inhibitor Conjugates” (Nektar Therapeutics, priority 2009, published 2012)
Converted amounts (≈) assume the structure as drawn.

Key:
cKIT = cKIT (Homo sapiens, UniProt P10721); assay: Off-chip mobility-shift kinase assay (Caliper LABCHIP), C-kit; settings: for C-kit AVG % Activity at 1.0E−05: concentration 1.0E−05; for C-kit AVG % Activity at 1.0E−06: concentration 1.0E−06; for C-kit AVG % Activity at 1.0E−07: concentration 1.0E−07; for C-kit AVG % Activity at 1.0E−08: concentration 1.0E−08; for C-kit AVG % Activity at 3.0E−05: concentration 3.0E−05; for C-kit AVG % Activity at 3.0E−06: concentration 3.0E−06; for C-kit AVG % Activity at 3.0E−07: concentration 3.0E−07; for C-kit AVG % Activity at 3.0E−08: concentration 3.0E−08; for C-kit AVG % Activity at 3.0E−09: concentration 3.0E−09
ABL = ABL (Homo sapiens, UniProt P00519); assay: Off-chip mobility-shift kinase assay (Caliper LABCHIP), ABL; settings: for ABL AVG % Activity at 1.0E−06: concentration 1.0E−06; for ABL AVG % Activity at 1.0E−06 / ABL AVG % Activity at 1.0E−07 / ABL AVG % Activity at 1.0E−08 / ABL AVG % Activity at 1.0E−09 / ABL AVG % Activity at 1.0E−10 / ABL AVG % Activity at 3.0E−06 / ABL AVG % Activity at 3.0E−07 / ABL AVG % Activity at 3.0E−08 / ABL AVG % Activity at 3.0E−09 / ABL AVG % Activity at 3.0E−10: imatinib-corresponding compounds; for ABL AVG % Activity at 1.0E−07: concentration 1.0E−07; for ABL AVG % Activity at 1.0E−08: concentration 1.0E−08; for ABL AVG % Activity at 1.0E−09: concentration 1.0E−09; for ABL AVG % Activity at 1.0E−10: concentration 1.0E−10; for ABL AVG % Activity at 3.0E−06: concentration 3.0E−06; for ABL AVG % Activity at 3.0E−07: concentration 3.0E−07; for ABL AVG % Activity at 3.0E−08: concentration 3.0E−08; for ABL AVG % Activity at 3.0E−09: concentration 3.0E−09; for ABL AVG % Activity at 3.0E−10: concentration 3.0E−10
PDGFRβ = PDGFRβ (Homo sapiens, UniProt P09619); assay: Off-chip mobility-shift kinase assay (Caliper LABCHIP), PDGFR; settings: for PDGFR AVG % Activity at 1.0E−06: concentration 1.0E−06; for PDGFR AVG % Activity at 1.0E−07: concentration 1.0E−07; for PDGFR AVG % Activity at 1.0E−08: concentration 1.0E−08; for PDGFR AVG % Activity at 1.0E−09: concentration 1.0E−09; for PDGFR AVG % Activity at 1.0E−10: concentration 1.0E−10; for PDGFR AVG % Activity at 3.0E−06: concentration 3.0E−06; for PDGFR AVG % Activity at 3.0E−07: concentration 3.0E−07; for PDGFR AVG % Activity at 3.0E−08: concentration 3.0E−08; for PDGFR AVG % Activity at 3.0E−09: concentration 3.0E−09; for PDGFR AVG % Activity at 3.0E−10: concentration 3.0E−10
Thermodynamic solubility = type: physicochemical; settings: aqueous buffer, thermodynamic from solid; phosphate buffered saline, pH 7.4; ambient temperature overnight
Protocol: Test compound (2.5 mg of solid; n=1) is weighed in a clear glass vial and buffer (0.5 mL) is added (phosphate buffered saline, pH 7.4). The solution is agitated at ambient temperature overnight using a vial roller system. […] Duplicate aliquots (50 μL) are sampled from the filtrate and diluted with one volume of 0.1 N hydrochloric acid and methanol (1:1 v/v) before analysis by HPLC-UV. […] The concentration of test compound in the filtrate is quantified relative to the concentration standard.
Analysis is performed using a gradient HPLC-UV system with a total cycle time of six minutes.

[1] = Caco-2 permeability (bi-directional; pH 7.4/pH 7.4); type: in vitro ADME; settings: human; for Papp A→B at 120 min, 10 μM: Caco-2, pH 7.4, read-out: Permeability (cm^2/s × 10^6); for efflux ratio at 120 min, 10 μM: Caco-2, ratio of B-A and A-B permeabilities
Protocol: Caco-2 cells are used as an in vitro model of the human intestinal epithelium and permit assessment of the intestinal permeability of potential drugs. Test compound is added to either the apical or basolateral side of a confluent monolayer of Caco-2 cells and permeability is measured by monitoring the appearance of the test compound on the opposite side of the membrane using LC-MS/MS. Apparent permeability (Papp) coefficients, efflux ratio for the test compound and recovery values were determined.
To measure the permeability of test compound in the apical to basolateral (A-B) and basolateral to apical (B-A) direction across Caco-2 cells.
Caco-2 cells obtained from the ATCC are used between passage numbers 40-60. Cells are seeded on to Millipore Multiscreen Caco-2 plates at 1×10^5 cells/cm^2. They are cultured for 20 days in DMEM and media is changed every two or three days. On day 20 the permeability study is performed.
On day 20, the monolayers are prepared by rinsing both basolateral and apical surfaces twice with HBSS at 37° C. Cells are then incubated with HBSS in both apical and basolateral compartments for 40 min to stabilize physiological parameters. HBSS is then removed from the apical compartment and replaced with test compound dosing solutions. […] The fluorescent integrity marker lucifer yellow is also included in the dosing solution. Analytical standards are made from dosing solutions. The apical compartment inserts are then placed into ‘companion’ plates containing fresh HBSS. For basolateral to apical (B-A) permeability determination the experiment is initiated by replacing buffer in the inserts then placing them in companion plates containing dosing solutions. At 120 minutes the companion plate is removed and apical and basolateral samples diluted for analysis by LC-MS/MS. Test compound permeability was assessed in duplicate. On each plate, compounds of known permeability characteristics were run as controls.
Test and control compounds were quantified by LC-MS/MS cassette analysis using a 5-point calibration with appropriate dilution of the samples. Cyprotex generic analytical conditions were used. The starting concentration (C0) and experimental recovery were calculated from both apical and basolateral compartment concentrations.
The integrity of the monolayers throughout the experiment was checked by monitoring lucifer yellow permeation using fluorimetric analysis. Lucifer yellow permeation is low if monolayers have not been damaged. […] If lucifer yellow Papp values are above QC limits in both replicate wells for a test compound, the compound was re-tested.
Data Analysis: The permeability coefficient for each compound (Papp) is calculated from the following equation: […]
wherein dQ/dt is the rate of permeation of the drug across the cells, C0 is the donor compartment concentration at time zero and A is the area of the cell monolayer. C0 is obtained from analysis of donor and receiver compartments at the end of the incubation period. It is assumed that all of the test compound measured after 120 minutes incubation was initially present in the donor compartment at 0 minutes. An efflux ratio (ER) is derived as follows:
Talinolol (a known P-gp substrate) is also included as a control compound to assess whether functional P-gp is present in the Caco-2 cell monolayer.

Chain of ABL (P00519 whole entry): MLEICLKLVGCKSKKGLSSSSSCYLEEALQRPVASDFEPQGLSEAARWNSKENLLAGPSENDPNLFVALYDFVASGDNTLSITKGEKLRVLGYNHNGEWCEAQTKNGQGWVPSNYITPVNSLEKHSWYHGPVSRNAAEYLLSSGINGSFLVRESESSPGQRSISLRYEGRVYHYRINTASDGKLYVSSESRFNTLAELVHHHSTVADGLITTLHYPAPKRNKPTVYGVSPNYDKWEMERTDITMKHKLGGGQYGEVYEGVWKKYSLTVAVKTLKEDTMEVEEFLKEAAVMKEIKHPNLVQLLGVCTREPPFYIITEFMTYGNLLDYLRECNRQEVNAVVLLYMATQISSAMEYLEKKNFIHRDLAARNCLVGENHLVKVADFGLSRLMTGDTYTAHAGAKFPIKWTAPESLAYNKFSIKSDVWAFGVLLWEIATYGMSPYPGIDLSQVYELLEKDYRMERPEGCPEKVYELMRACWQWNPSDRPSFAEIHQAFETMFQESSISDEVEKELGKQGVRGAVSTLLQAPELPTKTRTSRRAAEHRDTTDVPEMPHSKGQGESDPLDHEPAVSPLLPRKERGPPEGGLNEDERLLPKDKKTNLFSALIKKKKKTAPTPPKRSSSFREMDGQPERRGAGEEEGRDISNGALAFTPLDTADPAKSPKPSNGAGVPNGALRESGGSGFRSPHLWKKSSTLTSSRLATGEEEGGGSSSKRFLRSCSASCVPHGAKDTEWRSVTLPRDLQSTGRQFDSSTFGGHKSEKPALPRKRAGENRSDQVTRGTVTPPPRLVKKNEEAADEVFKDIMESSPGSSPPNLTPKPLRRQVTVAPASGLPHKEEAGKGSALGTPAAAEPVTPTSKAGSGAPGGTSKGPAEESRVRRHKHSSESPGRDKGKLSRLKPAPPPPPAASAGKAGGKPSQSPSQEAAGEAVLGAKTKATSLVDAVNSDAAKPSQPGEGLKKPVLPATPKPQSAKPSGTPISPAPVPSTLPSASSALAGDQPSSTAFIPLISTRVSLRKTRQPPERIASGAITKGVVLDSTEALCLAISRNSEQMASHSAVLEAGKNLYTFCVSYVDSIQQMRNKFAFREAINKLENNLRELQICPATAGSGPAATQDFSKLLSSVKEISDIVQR
Chain of PDGFRβ (P09619 33-1106): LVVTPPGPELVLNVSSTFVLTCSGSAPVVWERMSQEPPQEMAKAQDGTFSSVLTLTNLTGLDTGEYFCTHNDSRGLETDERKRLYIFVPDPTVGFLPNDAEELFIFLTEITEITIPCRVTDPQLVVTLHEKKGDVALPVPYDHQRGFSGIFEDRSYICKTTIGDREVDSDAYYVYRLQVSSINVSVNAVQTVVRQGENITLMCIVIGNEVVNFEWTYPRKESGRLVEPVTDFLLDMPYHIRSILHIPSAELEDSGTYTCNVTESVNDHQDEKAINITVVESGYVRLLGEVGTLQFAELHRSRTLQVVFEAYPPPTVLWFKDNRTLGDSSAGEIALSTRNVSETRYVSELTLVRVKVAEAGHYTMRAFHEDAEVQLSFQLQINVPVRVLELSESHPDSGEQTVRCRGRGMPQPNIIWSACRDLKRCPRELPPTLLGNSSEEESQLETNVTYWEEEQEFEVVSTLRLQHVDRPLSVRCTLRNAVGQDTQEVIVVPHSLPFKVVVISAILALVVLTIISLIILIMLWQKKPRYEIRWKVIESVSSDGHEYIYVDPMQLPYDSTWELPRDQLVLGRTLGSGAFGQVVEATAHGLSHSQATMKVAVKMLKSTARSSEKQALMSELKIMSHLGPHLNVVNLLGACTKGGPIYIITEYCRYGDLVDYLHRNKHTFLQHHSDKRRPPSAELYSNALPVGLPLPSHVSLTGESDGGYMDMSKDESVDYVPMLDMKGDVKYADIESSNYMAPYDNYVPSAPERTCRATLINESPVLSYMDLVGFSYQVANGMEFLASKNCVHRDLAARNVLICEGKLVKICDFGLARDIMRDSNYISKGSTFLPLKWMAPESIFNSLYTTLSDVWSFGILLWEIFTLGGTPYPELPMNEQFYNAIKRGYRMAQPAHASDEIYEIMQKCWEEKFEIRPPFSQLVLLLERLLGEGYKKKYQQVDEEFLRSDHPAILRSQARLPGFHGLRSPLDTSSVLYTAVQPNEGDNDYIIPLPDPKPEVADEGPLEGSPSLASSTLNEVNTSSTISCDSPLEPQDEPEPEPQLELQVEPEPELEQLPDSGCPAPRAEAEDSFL
Chain of cKIT (P10721 26-976): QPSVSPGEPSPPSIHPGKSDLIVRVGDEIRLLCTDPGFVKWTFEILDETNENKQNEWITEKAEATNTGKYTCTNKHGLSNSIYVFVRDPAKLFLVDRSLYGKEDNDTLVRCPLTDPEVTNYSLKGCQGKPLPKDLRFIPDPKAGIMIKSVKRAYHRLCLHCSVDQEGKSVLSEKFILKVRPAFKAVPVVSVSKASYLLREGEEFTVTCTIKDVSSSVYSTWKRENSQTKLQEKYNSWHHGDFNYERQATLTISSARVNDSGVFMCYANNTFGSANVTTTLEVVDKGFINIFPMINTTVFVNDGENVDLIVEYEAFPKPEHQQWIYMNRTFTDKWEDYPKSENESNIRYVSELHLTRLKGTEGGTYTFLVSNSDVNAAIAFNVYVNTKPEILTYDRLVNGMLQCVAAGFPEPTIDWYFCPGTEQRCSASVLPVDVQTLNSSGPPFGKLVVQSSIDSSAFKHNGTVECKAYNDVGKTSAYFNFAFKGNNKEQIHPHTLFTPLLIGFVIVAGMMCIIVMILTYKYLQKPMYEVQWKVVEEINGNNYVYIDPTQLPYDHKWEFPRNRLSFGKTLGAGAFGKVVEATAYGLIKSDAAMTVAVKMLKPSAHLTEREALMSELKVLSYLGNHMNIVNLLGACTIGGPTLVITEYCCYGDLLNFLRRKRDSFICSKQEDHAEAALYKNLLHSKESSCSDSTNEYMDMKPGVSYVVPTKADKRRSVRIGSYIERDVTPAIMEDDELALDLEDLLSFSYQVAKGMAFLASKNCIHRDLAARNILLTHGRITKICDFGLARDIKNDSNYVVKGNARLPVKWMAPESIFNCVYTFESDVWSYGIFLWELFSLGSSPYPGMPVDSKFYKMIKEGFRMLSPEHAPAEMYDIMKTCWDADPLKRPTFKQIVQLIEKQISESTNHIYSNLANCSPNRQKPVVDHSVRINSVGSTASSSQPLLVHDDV

| SMILES | IC50 (cKIT) | C-kit AVG % Activity at 1.0E−05 (cKIT) | C-kit AVG % Activity at 1.0E−06 (cKIT) | C-kit AVG % Activity at 1.0E−07 (cKIT) | C-kit AVG % Activity at 1.0E−08 (cKIT) | C-kit AVG % Activity at 3.0E−05 (cKIT) | C-kit AVG % Activity at 3.0E−06 (cKIT) | C-kit AVG % Activity at 3.0E−07 (cKIT) | C-kit AVG % Activity at 3.0E−08 (cKIT) | C-kit AVG % Activity at 3.0E−09 (cKIT) | IC50 (ABL) | ABL AVG % Activity at 1.0E−06 (ABL) | ABL AVG % Activity at 1.0E−07 (ABL) | ABL AVG % Activity at 1.0E−08 (ABL) | ABL AVG % Activity at 1.0E−09 (ABL) | ABL AVG % Activity at 1.0E−10 (ABL) | ABL AVG % Activity at 3.0E−06 (ABL) | ABL AVG % Activity at 3.0E−07 (ABL) | ABL AVG % Activity at 3.0E−08 (ABL) | ABL AVG % Activity at 3.0E−09 (ABL) | other results |
| --- | --- | --- | --- | --- | --- | --- | --- | --- | --- | --- | --- | --- | --- | --- | --- | --- | --- | --- | --- | --- | --- |
| COCCOCCOCCOCCOCCOCCOCCOCCOCCN1CCN(Cc2ccc(C(=O)Nc3ccc(C)c(Nc4nccc(-c5cccnc5)n4)c3)cc2)CC1 [mPEG9-N′-Imatinib] | 550 nM | 2% | 35% | 82% | 91% | 0% | 12% | 64% | 92% | 95% | 3800 nM | 69% | 84% | 93% | 97% | 97% | 49% | 79% | 89% | 96% | ABL AVG % Activity at 3.0E−10 (ABL): 97%; IC50 (PDGFRβ): 340 nM; PDGFR AVG % Activity at 1.0E−06 (PDGFRβ): 13%; PDGFR AVG % Activity at 1.0E−07 (PDGFRβ): 74%; PDGFR AVG % Activity at 1.0E−08 (PDGFRβ): 95%; PDGFR AVG % Activity at 1.0E−09 (PDGFRβ): 99%; PDGFR AVG % Activity at 1.0E−10 (PDGFRβ): 92%; PDGFR AVG % Activity at 3.0E−06 (PDGFRβ): 0%; PDGFR AVG % Activity at 3.0E−07 (PDGFRβ): 48%; PDGFR AVG % Activity at 3.0E−08 (PDGFRβ): 86%; PDGFR AVG % Activity at 3.0E−09 (PDGFRβ): 100%; PDGFR AVG % Activity at 3.0E−10 (PDGFRβ): 95%; solubility (Thermodynamic solubility): 2500 µg/mL (≈ 2.81 mM); Papp A→B at 120 min, 10 μM [1]: 0.05 ± 0.02 ×10⁻⁶ cm/s; efflux ratio at 120 min, 10 μM [1]: 359 |
| COCCOCCOCCOCCOCCOCCOCCN1CCN(Cc2ccc(C(=O)Nc3ccc(C)c(Nc4nccc(-c5cccnc5)n4)c3)cc2)CC1 [mPEG7-N′-Imatinib] | 2500 nM | 16% | 69% | 91% | 95% | 4% | 44% | 84% | 97% | 95% | ≥ 3000 nM | 69% | 83% | 92% | 96% | 96% | 52% | 78% | 88% | 96% | ABL AVG % Activity at 3.0E−10 (ABL): 97%; IC50 (PDGFRβ): 310 nM; PDGFR AVG % Activity at 1.0E−06 (PDGFRβ): 18%; PDGFR AVG % Activity at 1.0E−07 (PDGFRβ): 76%; PDGFR AVG % Activity at 1.0E−08 (PDGFRβ): 91%; PDGFR AVG % Activity at 1.0E−09 (PDGFRβ): 98%; PDGFR AVG % Activity at 1.0E−10 (PDGFRβ): 95%; PDGFR AVG % Activity at 3.0E−06 (PDGFRβ): 0%; PDGFR AVG % Activity at 3.0E−07 (PDGFRβ): 43%; PDGFR AVG % Activity at 3.0E−08 (PDGFRβ): 91%; PDGFR AVG % Activity at 3.0E−09 (PDGFRβ): 93%; PDGFR AVG % Activity at 3.0E−10 (PDGFRβ): 100%; solubility (Thermodynamic solubility): 3000 µg/mL (≈ 3.74 mM); Papp A→B at 120 min, 10 μM [1]: 0.3 ± 0.01 ×10⁻⁶ cm/s; efflux ratio at 120 min, 10 μM [1]: 75.7 |
| COCCOCCOCCOCCOCCOCCOCCOCCOCCNCc1ccc(C(=O)Nc2ccc(C)c(Nc3nccc(-c4cccnc4)n3)c2)cc1 [mPEG9-N-Imatinib] | 1600 nM | 9% | 62% | 93% | 98% | 2% | 32% | 81% | 99% | 99% | ≥ 3000 nM | 77% | 89% | 97% | 96% | 96% | 70% | 85% | 93% | 96% | ABL AVG % Activity at 3.0E−10 (ABL): 96%; IC50 (PDGFRβ): 290 nM; PDGFR AVG % Activity at 1.0E−06 (PDGFRβ): 11%; PDGFR AVG % Activity at 1.0E−07 (PDGFRβ): 65%; PDGFR AVG % Activity at 1.0E−08 (PDGFRβ): 83%; PDGFR AVG % Activity at 1.0E−09 (PDGFRβ): 78%; PDGFR AVG % Activity at 1.0E−10 (PDGFRβ): 89%; PDGFR AVG % Activity at 3.0E−06 (PDGFRβ): 0%; PDGFR AVG % Activity at 3.0E−07 (PDGFRβ): 38%; PDGFR AVG % Activity at 3.0E−08 (PDGFRβ): 75%; PDGFR AVG % Activity at 3.0E−09 (PDGFRβ): 100%; PDGFR AVG % Activity at 3.0E−10 (PDGFRβ): 86%; solubility (Thermodynamic solubility): 2700 µg/mL (≈ 3.29 mM); Papp A→B at 120 min, 10 μM [1]: 0.01 ± 0.004 ×10⁻⁶ cm/s; efflux ratio at 120 min, 10 μM [1]: 482 |
